Measurements: publication PMC10276812, “Cannabidiol inhibits Nav channels through two distinct binding sites” (Nature Communications, 2023)

Legend:
Assay type in all cases: cell-based
Nav1.7 [1] = target: T1, Nav1.7 (Homo sapiens, UniProt Q15858, F387A); assay: whole-cell patch clamp in transfected HEK293T cells
T1 construct: gene SCN9A

Nav1.7 [2] = target: T2, Nav1.7 (Homo sapiens, UniProt Q15858, N1459A/S1320A); assay: as above
T2 construct: gene SCN9A

Nav1.7 [3] = target: T3, Nav1.7 (Homo sapiens, UniProt Q15858); assay: cryo-EM structure at […] Å; Kd for the inactivated state calculated from patch-clamp (alpha subunit alone)
T3 construct: gene SCN9A; no beta subunit stated for this line

Nav1.7 [4] = target: T4, Nav1.7 (Homo sapiens, UniProt Q15858, S1320A); assay: whole-cell patch clamp in transfected HEK293T cells
T4 construct: gene SCN9A

Nav1.7 [5] = target: T5, Nav1.7 (Homo sapiens, UniProt Q15858, V383A); assay: as above
T5 construct: gene SCN9A

Nav1.7 [6] = target: T6, Nav1.7 (Homo sapiens, UniProt Q15858, N1459A); assay: as above
T6 construct: gene SCN9A
T6 sequence (Q15858 whole entry N1459A): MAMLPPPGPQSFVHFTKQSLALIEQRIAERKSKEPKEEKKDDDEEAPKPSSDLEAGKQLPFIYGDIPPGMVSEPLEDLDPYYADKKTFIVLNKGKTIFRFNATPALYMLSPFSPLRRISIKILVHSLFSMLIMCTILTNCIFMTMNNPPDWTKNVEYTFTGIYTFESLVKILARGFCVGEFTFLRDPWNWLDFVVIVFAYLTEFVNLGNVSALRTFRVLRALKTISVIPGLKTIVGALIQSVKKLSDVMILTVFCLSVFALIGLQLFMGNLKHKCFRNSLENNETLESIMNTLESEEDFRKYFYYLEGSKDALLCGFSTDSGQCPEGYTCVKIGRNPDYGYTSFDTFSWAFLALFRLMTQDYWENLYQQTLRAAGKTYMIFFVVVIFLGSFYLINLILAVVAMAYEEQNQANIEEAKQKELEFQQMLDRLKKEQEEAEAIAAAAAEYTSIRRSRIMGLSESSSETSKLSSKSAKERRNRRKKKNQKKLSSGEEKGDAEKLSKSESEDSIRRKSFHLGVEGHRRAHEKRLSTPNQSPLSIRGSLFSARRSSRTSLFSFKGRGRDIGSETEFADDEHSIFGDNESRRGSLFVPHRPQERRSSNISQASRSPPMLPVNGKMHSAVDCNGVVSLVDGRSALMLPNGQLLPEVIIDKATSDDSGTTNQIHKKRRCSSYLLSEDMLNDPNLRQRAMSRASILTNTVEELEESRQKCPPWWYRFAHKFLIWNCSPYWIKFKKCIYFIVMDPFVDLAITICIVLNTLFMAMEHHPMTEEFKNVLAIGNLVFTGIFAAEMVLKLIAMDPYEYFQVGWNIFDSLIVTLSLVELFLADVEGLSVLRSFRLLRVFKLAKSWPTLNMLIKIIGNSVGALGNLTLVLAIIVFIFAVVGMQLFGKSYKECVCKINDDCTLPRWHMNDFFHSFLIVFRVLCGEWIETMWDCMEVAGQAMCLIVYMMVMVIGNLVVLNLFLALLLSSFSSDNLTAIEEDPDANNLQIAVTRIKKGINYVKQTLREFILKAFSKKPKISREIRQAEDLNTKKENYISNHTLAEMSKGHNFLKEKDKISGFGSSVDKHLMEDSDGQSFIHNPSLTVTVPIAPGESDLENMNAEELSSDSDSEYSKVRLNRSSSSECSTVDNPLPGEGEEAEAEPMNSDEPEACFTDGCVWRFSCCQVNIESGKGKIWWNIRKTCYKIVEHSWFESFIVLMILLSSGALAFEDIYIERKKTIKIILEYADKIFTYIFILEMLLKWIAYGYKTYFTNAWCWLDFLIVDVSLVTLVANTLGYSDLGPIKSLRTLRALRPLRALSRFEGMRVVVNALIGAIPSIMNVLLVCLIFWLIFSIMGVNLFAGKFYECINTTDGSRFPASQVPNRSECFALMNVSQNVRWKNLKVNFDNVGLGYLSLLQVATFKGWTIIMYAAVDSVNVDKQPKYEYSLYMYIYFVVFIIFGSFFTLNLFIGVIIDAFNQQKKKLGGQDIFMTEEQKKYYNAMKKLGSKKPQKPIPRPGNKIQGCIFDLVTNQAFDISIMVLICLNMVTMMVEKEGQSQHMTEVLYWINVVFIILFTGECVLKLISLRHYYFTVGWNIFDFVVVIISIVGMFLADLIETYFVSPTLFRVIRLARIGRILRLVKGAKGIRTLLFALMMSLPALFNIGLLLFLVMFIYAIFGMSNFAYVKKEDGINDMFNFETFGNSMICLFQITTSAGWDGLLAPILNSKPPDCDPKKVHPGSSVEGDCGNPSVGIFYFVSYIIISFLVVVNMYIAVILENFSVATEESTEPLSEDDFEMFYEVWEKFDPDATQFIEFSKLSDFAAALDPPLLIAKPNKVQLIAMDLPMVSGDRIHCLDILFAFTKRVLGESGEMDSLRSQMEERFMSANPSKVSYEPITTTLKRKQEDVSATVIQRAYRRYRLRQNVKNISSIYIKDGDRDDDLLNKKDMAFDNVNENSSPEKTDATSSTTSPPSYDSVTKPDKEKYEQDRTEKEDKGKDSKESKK

T3 sequence (Q15858 whole entry): as the sequence (Q15858 whole entry N1459A) above, with A1459N counted along it
T4 sequence (Q15858 whole entry S1320A): as the sequence (Q15858 whole entry N1459A) above, with S1320A, A1459N counted along it
T1 sequence (Q15858 whole entry F387A): as the sequence (Q15858 whole entry N1459A) above, with F387A, A1459N counted along it
T5 sequence (Q15858 whole entry V383A): as the sequence (Q15858 whole entry N1459A) above, with V383A, A1459N counted along it
T2 sequence (Q15858 whole entry S1320A/N1459A): as the sequence (Q15858 whole entry N1459A) above, with S1320A counted along it

Structure (SMILES): C=C(C)[C@@H]1CCC(C)=C[C@H]1c1c(O)cc(CCCCC)cc1O [CBD, Cannabidiol]
- IC50 (Nav1.7 [1]): 3.65 ± 0.78 µM
- IC50 (Nav1.7 [2]): 4.28 ± 0.67 µM
- Kd (Nav1.7 [3]): ~0.05 µM
- IC50 (Nav1.7 [4]): 3.81 ± 0.42 µM
- IC50 (Nav1.7 [5]): 3.56 ± 0.58 µM
- IC50 (Nav1.7 [6]): 2.46 ± 0.28 µM
